# Legend:
# ATF4 = assay: Western blot of ATF4 in spinal cord after contusion SCI; type: in vivo, Sprague-Dawley rats; details: VPA-treated injured spinal cords compared with vehicle-treated ones
# Description: (§1) Adult females Sprague-Dawley rats aged 11 weeks (220-250 g) were anesthetized with pentobarbital (40 mg/kg i.p.). When unresponsive, the vertebral column was exposed and a laminectomy carried out at T8-T9 levels. Rostral T7 and caudal T10 vertebral bodies were clamped with Adson stabilizing forceps, and carefully adjusted to level the spinal cord in the horizontal plane. A contusion injury was performed using the Infinite Horizon impactor device (Precision Scientific Instruments, Lexington, KY). The stainless steel impounder tip was placed at 3-4 mm above the exposed spinal cord, and then a fast impact produced applying forces of 150 or 250 kilodynes (KDyn) to the exposed spinal cord. The wound was sutured with 5-0 silk thread in the muscular plane and the skin was closed with small clips and disinfected with povidone iodine solution. Sham-operated animals received the same surgical procedure but sustained no impact injury; the spinal cord was left exposed for 5 min. […]
# Rats were re-anesthetised and decapitated at 3 dpo for sample preparation. […] After clearance, protein concentration was measured by the BCA method assay (BCA Protein Assay kit, Pierce). […] The membrane was visualized by enhanced chemiluminiscence (ECL) method and the images analyzed with Gene Snap and Gene Tools software, and Gene Genome apparatus (Syngene). […]
# CHOP = assay: Tunicamycin-induced ER stress in HEK cell line, Western blot of CHOP; type: cell-based; details: 3 µg/ml tunicamycin, valproate
# Description: Primary fibroblasts obtained from rat sciatic nerve and HEK cell line were cultured in Dulbecco's modified Eagle's/F-12 medium supplemented with 10% fetal calf serum (Gibco). Fibroblasts were treated with 3 µg/mL of tunicamycin (Sigma) for 4 h and harvested in RIPA buffer for protein extraction.
# We have recently reported that SCI triggers an unbalanced UPR characterized by unchanged levels of BiP/Grp78 levels but progressive accumulation of the pro-apoptotic protein CHOP, with maximal CHOP levels found at 3 days post-injury in the weight-drop contusion model (Penas et al, 2007). In this study, we used a contusion model using an impactor device to specifically control the force (either 150 KDyn or 250 KDyn) to be apply on the T8 laminectomized spinal cord segment. We analyzed the spinal cord 8 mm-length segment that includes the lesion epicenter from sham-operated animals and from VPA treated or vehicle treated SCI animals at 3 days after operation. […] Thus, we increased the amount of VPA administered to 300 mg/kg every 12 h, as reported previously for a brain stroke rat model (Kim et al, 2007), and analyzed the effect using two different contusion forces of 150 and 250 KDyn. We observed that the levels of CHOP were directly proportional to the severity of the lesion; the more severe, the higher the level. […]
# hind limb locomotion = assay: Open-field walking test (BBB scale) after spinal cord contusion; type: in vivo, Sprague-Dawley rats; details: SCI 250 Kdyn
# Description: as §1, with “min. The animals were maintained in a warm environment until full recovery, and received preventive antibiotic (amoxicyline) and analgesic (buprenorphine) treatment. All animals were kept under standard conditions of light and temperature and fed with food and water ad libitum.” for “min.”
smiles,measurement,setting,value
"CCCC(CCC)C(=O)O [VPA, 2-propylpentanoic acid]",levels of ATF4,ATF4,significantly higher levels
same,CHOP accumulation promoted by tunicamycin,CHOP,can be attenuated
same,BBB score,"hind limb locomotion; 7 days post-surgery, average of both groups",3-4
same,BBB score,"hind limb locomotion; 35 days, VPA 300 mg/kg every 12 h one week then every 24 h two weeks, saline 8",12

# Source: patent publication EP2181708A1, “Use of Valproate for reducing CHOP levels, particularly in a mammal having SCI” (Universitat Autonoma de Barcelona, priority 2008, dated 2010)
